Ki data for 28 compounds are collected here from paper PMC11719606, “Exploring the Inhibition of Toxoplasma gondii α-Carbonic Anhydrase by Sulfonamides: Insights into Potential Drug Targeting” (International Journal of Molecular Sciences, 2024).

The structures appear in SMILES notation.

The assay concerns the target T1, Tg_CA (Toxoplasma gondii, UniProt S8F479).
T1 construct: gene TGME49_259950; alpha-CA domain, residues 487-830 of an 861-residue protein; E. coli BL21(DE3) codon-plus; about 47 kDa
T1 sequence (S8F479 487-830): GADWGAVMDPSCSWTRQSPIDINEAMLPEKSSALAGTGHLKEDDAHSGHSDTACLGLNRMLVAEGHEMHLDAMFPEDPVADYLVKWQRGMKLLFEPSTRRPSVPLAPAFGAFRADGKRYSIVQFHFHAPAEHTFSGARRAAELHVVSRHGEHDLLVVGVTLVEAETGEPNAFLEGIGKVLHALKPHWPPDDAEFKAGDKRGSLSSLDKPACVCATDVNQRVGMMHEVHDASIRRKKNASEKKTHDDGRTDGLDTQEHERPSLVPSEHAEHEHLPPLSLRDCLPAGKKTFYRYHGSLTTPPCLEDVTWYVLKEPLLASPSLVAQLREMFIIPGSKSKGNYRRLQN
The assay can be described thus: stopped-flow CO2 hydration, phenol red, Cheng-Prusoff. Format: biochemical.
For orientation: Ki means the dissociation constant of the complex between target and ligand, obtained from inhibition or displacement. `Nc1ccc(S(=O)(=O)Nc2nnc(S(N)(=O)=O)s2)cc1` [compound 20]: the Ki stood at 17.8 nM. As to `Nc1cc(Cl)c(S(N)(=O)=O)cc1S(N)(=O)=O` [compound 12], the Ki amounted to 73.8 nM. For `NS(=O)(=O)Cc1noc2ccccc12` [ZNS, Zonisamide] the value was 912 nM; for `NS(=O)(=O)c1ccc(O)cc1` [compound 15], 76.4 nM. For `NS(=O)(=O)c1cc2c(cc1Cl)NCNS2(=O)=O` [HCT, Hydrochlorothiazide] the value was 839 nM; for `NS(=O)(=O)c1ccc(CCNS(=O)(=O)c2ccc([N+](=O)[O-])cc2CO)cc1` [compound 21], 94.7 nM. Under `Nc1nccc(Nc2ccc(S(N)(=O)=O)cc2)n1` [compound 19] stands 72.5 nM; under `Nc1ccc(S(=O)(=O)NCCc2ccc(S(N)(=O)=O)cc2)cc1` [compound 24], 204 nM; under `NS(=O)(=O)c1ccc(C(=O)O)cc1` [compound 18], 85.3 nM. In turn, `NS(=O)(=O)c1cc(Cl)c(Cl)c(S(N)(=O)=O)c1` [DCP, Dichlorphenamide] showed an inhibition constant (Ki) of 77.5 nM. For `NCc1ccc(S(N)(=O)=O)cc1` [compound 5] the value was 739 nM; for `Cn1nc(S(N)(=O)=O)sc1=N` [compound 14], 61 nM; for `Cc1ccc(S(N)(=O)=O)cc1` [compound 4], 586 nM.

As to `NS(=O)(=O)c1ccc(CO)cc1` [compound 16], the affinity, expressed as Ki, was 91.6 nM. `CC(=O)N=c1sc(S(N)(=O)=O)nn1C` [MZA, Methazolamide] returned a Ki of 24.7 nM. Under `CCN[C@H]1CN(CCCOC)S(=O)(=O)c2sc(S(N)(=O)=O)cc21` [BRZ, Brinzolamide] stands 77.8 nM; under `NS(=O)(=O)c1ccc(S(=O)(=O)Nc2cccc3c(Cl)c[nH]c23)cc1` [IND, Indisulam], 84 nM; under `Nc1ccc(S(=O)(=O)Nc2ccc(S(N)(=O)=O)cc2)cc1` [compound 22], 91.2 nM. Compound `Nc1nnc(S(N)(=O)=O)s1` [compound 13] came in with a Ki of 57.5 nM. Take `NS(=O)(=O)c1ccc(CCO)cc1` [compound 17]: the affinity, expressed as Ki, was 263 nM. For `Nc1cc(C(F)(F)F)c(S(N)(=O)=O)cc1S(N)(=O)=O` [compound 11] the value was 65.1 nM.

On to `Cc1onc(-c2ccccc2)c1-c1ccc(S(N)(=O)=O)cc1` [VLX, Valdecoxib], for which the Ki came out at 426 nM.

Turning to `NS(=O)(=O)c1nnc(NS(=O)(=O)c2ccccc2)s1` [BZA, Benzolamide], the affinity corresponds to a Ki of 62.1 nM. For `Cc1ccc(-c2cc(C(F)(F)F)nn2-c2ccc(S(N)(=O)=O)cc2)cc1` [CLX, Celecoxib] the value was 508 nM; for `O=C1NS(=O)(=O)c2ccccc21` [SAC, Saccharin], 8450 nM. Under `NS(=O)(=O)c1cc(Cl)cc(Cl)c1O` [compound 10] stands 578 nM; under `Nc1ccc(S(=O)(=O)NCc2ccc(S(N)(=O)=O)cc2)cc1` [compound 23], 93.4 nM; under `CC1(C)O[C@@H]2[C@@H](CO[C@@]3(COS(N)(=O)=O)OC(C)(C)O[C@@H]23)O1` [TPM, Topiramate], 720 nM.
